The source of these data is paper PMC7403980, “Anti-Inflammatory Effects of the Novel PIM Kinase Inhibitor KMU-470 in RAW 264.7 Cells through the TLR4-NF-κB-NLRP3 Pathway” (International Journal of Molecular Sciences, 2020).

Common to all, as to assay type: cell-based, murine
In one series the test system is JNK. The series can be described thus: LPS-induced phosphorylation of JNK in RAW 264.7 cells (Western blot). The conditions noted are these: KMU-470 1 μM 24 h pre-treatment, LPS 50 ng/mL. As for the experimental part:
Figure 5 Effect of KMU-470 on LPS-induced phosphorylation of MAPKs/ IKKs/ NF-κB in RAW 264.7 cells. (A) Cells were pre-treated with 1μM of KMU-470 for 24 h and stimulated with LPS (50 ng/mL) at the indicated times. (C) Cells were pre-treated with 0.5 and 1μM of KMU-470 for 30 min prior to LPS treatment. Total proteins were isolated after 6 h exposure to LPS (50 ng/mL). The protein expression level of MAPKs, p-IKKα/β, and p-NF-κB were assessed using Western blot analyses. (B,D) The relative optical densities of MAPKs, p-IKKα/β, and p-NF-κB bands were analyzed by the Image-J program. *** p < 0.001.
(§1) RAW 264.7 cells were pre-treated with KMU-470 (0.5–1 μM/mL) for 24 h and stimulated with LPS (50 ng/mL) for 6 h. After stimulation, total cells were harvested, washed with PBS buffer, and then the total protein was extracted with a RIPA buffer (0.1 mM sodium orthovanadate, 137 mM NaCl, 15 mM EGTA, 0.1% Triton X-100, 25 mM MOPS, 15 mM MgCl2, 100 μM phenylmethylsulfonyl fluoride, and 20 μM leupeptin, adjusted to pH 7.2). […] Immunoreactive proteins were detected using the ELC Western blot detection system kit (Millipore). Signal intensity was measured using the Chemi Image documentation system (Fusion Fx7, VILBER LOUTMAT). Protein expression levels were quantified using the Image J program.
In general terms: In western blotting, separated proteins are transferred to a membrane and probed.

For another series, the system named is MyD88. In words: LPS-induced MyD88 protein expression in RAW 264.7 cells (Western blot). The conditions noted are these: KMU-470 0.5 and 1 μM 30 min, LPS 6 h. As for the experimental part: Figure 4 Inhibitory effect of KMU-470 on LPS-induced TLR4 and MyD88 protein expression in RAW 264.7 cells. (A,B) Cells were pre-treated with 0.5 and 1 μM of KMU-470 for 30 min prior to LPS treatment. Then, total protein was isolated after 6 h exposure to LPS. The protein expression level of TLR4 and MyD88 were assessed using Western blot analysis. (C,D) The relative optical densities of TLR4 and MyD88 bands were analyzed by the Image-J program. *** p < 0.001.
as §1, with “7.2). The cell culture media supernatants were precipitated using TCA (trichloroacetic acid, protocol by Luis Sanchez 2001). A BCA protein assay kit (Thermo Scientific, Wilmington, USA) was used for the determination of the protein concentration.” for “7.2).”

A further series has as its system ASC. In words: LPS-induced ASC protein expression in RAW 264.7 cells (Western blot). The conditions noted are these: KMU-470 0.1, 0.5, 1 μM 30 min, LPS 50 ng/mL 6 h. As for the experimental part: Figure 6 Inhibitory effect of KMU-470 on LPS-induced up-regulation of pro-inflammatory cytokines and activation of NLRP3 inflammasome in RAW 264.7 cells. (A–C) Cells were treated with KMU-470 for 30 min and stimulated with LPS 50 ng/mL for 6 h. The levels of IL-1β, TNF-α, and IL-6 were determined using real time PCR. *** p < 0.001, *p < 0.05. (D) Cells were pre-treated with 0.1, 0.5, and 1 μM of KMU-470 for 30 min and treated with LPS 50 ng/mL for 6 h, respectively. Whole cell lysates were isolated and used to measure the protein expression levels of pro-IL-1β and β-actin by Western blot analysis. (E) Cells were pre-treated with 0.1, 0.5, and 1 μM of KMU-470 for 30 min and treated with LPS 50 ng/mL for 6 h, respectively. Whole cell lysates were isolated and used to measure the protein expression levels of […], ASC, pro-caspase-1, pro-IL-1β, and β-actin by Western blot analysis.
RAW 264.7 cells were pre-treated with KMU-470 (0.5–1 μM/mL) for 24 h and stimulated with LPS (50 ng/mL) for 6 h. […] Immunoreactive proteins were detected using the ELC Western blot detection system kit (Millipore). Signal intensity was measured using the Chemi Image documentation system (Fusion Fx7, VILBER LOUTMAT). Protein expression levels were quantified using the Image J program.

In the next series the test system is NO production. The series can be described thus: LPS-induced NO production in RAW 264.7 cells (Griess reagent). The conditions noted are these: KMU-470 1 μM 30 min pre-treatment, LPS 50, 200, 1000 ng/mL 24 h. As for the experimental part: (§2) Figure 3 Inhibitory effect of KMU-470 on LPS-induced NO production and iNOS protein expression, and cell viability in RAW 264.7 cells. (A) The cells were pre-treated with KMU-470 at a concentration of 1 μM for 30 min and then treated with different concentrations of LPS for 24 h. Nitrite in the culture supernatant was collected and evaluated using Griess reagent. Absorbance was measured at 540 nm. *** p < 0.001, ** p < 0.01, * p < 0.05. (B) Cells are pre-treated with two different concentrations of KMU-470 (0.5 μM and 1 μM) for 30 min, followed by treatment with 1 μg/mL LPS for 24 h. β-actin was used as an internal control for Western blot analysis. (C) Image-J program was used to analyze the relative optical density of the iNOS band. (D) Cells were treated with various concentrations of KMU-470 for 24 h. The effects of KMU-470 on cell proliferation and morphological changes were observed by microscopy (X100). (E) The cell proliferation rate was determined by cell count using a trypan blue exclusion assay. *p < 0.05 (F) Effect of KMU-470 on cell viability was measured by XTT assay. *** p < 0.001.
The amount of nitrite accumulated in the cell culture medium was measured directly using a Griess reagent as an indicator of NO production. […] The OD was measured by spectrophotometer (BMG Labtech, Ortenberg, Germany) at 540 nm. […]
For orientation: Nitrite, measured by Griess reagent, commonly stands in for NO production.

The subject of a further series is RAW 264.7 cells. In words: Toxicity / cell viability in RAW 264.7 cells (microscopy, trypan blue, XTT). The conditions noted are these: up to 1 µM, 24 h, trypan blue cell count. As for the experimental part: as §2
The cell viability assay was performed using a 2,3-bis (2-methoxy-4-nitro-5-sulphonyl)-2H-tetrazolium-5-carboxanilide (XTT) assay (Welgene Inc, Daegu, Korea). […] The optical density (OD) was measured using a microplate reader (BMG Labtech, Ortenberg, Germany) at a 450 nm wavelength. […]
On the technique in general: Tetrazolium assays rely on reduction of a dye to a coloured formazan, in cell work by metabolically active cells.

On to `CN(C)CCNc1cncc(-c2ccc3c(c2)/C(=C/c2cnc[nH]2)C(=O)N3)n1` [KMU-470, (Z)-3-((1H-Imidazol-5-yl)methylene)-5-(6-((2-(dimethylamino)ethyl)amino)pyrazin-2-yl)indolin-2-one], for which the “LPS-induced phosphorylation of JNK” value with JNK is “significantly inhibited”. In addition, the “Up-regulation of MyD88 protein by LPS” value with MyD88 is “suppressed”. Besides, in the series with ASC, the “Expression of ASC protein compared with LPS alone group” value was “marked decrease”. Also, the “LPS-induced NO production” value in the series with NO production is listed as “suppressed”. Further, the “Toxicity in RAW 264.7 cells” value with RAW 264.7 cells was “no toxicity”.
